Experimental findings from patent publication US20230060425A1, “FUSED BICYCLIC HETEROCYCLE DERIVATIVES AS PESTICIDES” (Bayer Aktiengesellschaft, priority 2019, published 2023) are described below.

Holding throughout (format): in vivo
Test [1] relates to Myzus persicae. Put plainly: Myzus persicae spray test (MYZUPE), comparative. The following applies: 120 h, 5 dat, read-out: % Efficacy. The protocol:
Myzus persicae—Spray Test (MYZUPE)
(§1) Solvent: • 78.0 parts by weight of acetone • 1.5 parts by weight of dimethylformamide
(§2) Emulsifier: alkylaryl polyglycol ether
(§3) To produce a suitable active compound preparation, 1 part by weight of active compound is dissolved using the stated parts by weight of solvent and made up with water containing an emulsifier concentration of 1000 ppm until the desired concentration is attained. To produce further test concentrations, the formulation is diluted with emulsifier-containing water.
Discs of Chinese cabbage leaves (Brassica pekinensis) infested by all stages of the green peach aphid (Myzus persicae) are sprayed with an active compound preparation of the desired concentration.
(§4) After the desired period of time, the efficacy in % is determined. 100% means that all the aphids have been killed; 0% means that no aphids have been killed.

Test [2] relates to Myzus persicae. Put plainly: Myzus persicae drench test (MYZUPE D). As to conditions: soil, 240 h, 10 dat, read-out: % Efficacy. As to the method: Myzus persicae—Drench Test (MYZUPE D)
Solvent: 7 parts by weight of dimethylformamide
Emulsifier: 2 part by weight of alkylaryl polyglycol ether
To produce a suitable active compound preparation, 1 part by weight of active compound is mixed with the specified amounts of solvent and emulsifier, and the concentrate is diluted with water to the desired concentration, it being necessary to include the volume of soil which is drenched in the calculation. It should be ensured that a concentration of 40 ppm of emulsifier in the soil is not exceeded. To produce further test concentrations, water is used for dilution.
Savoy cabbage (Brassica oleracea) in pots with soil and infested by all stages of the green peach aphid (Myzus persicae) is watered with an active compound preparation of the desired concentration.
as §4

Test [3] relates to Myzus persicae. Put plainly: Myzus persicae oral test. As to conditions: 120 h, application rate 4 ppm, after 5 days, read-out: efficacy. The method, boiled down: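 Aphid feeding test: compound dissolved in acetone, diluted with water and mixed with IPL41 insect medium plus sugar, offered through parafilm to a mixed population of green peach aphids. Mortality scored after 5 days as % efficacy (100% = all aphids dead, 0% = none dead).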

Test [4] concerns Myzus persicae. Put plainly: Myzus persicae spray test on bell pepper plants (MYZUPE S). The following applies: 144 h, 6 dat, read-out: % Efficacy. As to the method: Myzus persicae—Spray Test (MYZUPE S)
Solvent: 14 parts by weight of dimethylformamide
as §2
To produce a suitable active compound preparation, 1 part by weight of active compound is dissolved using the stated parts by weight of solvent and made up with water containing an emulsifier concentration of 1000 ppm until the desired concentration is attained. To produce further test concentrations, the formulation is diluted with emulsifier-containing water. If the addition of ammonium salts or/and penetrants is required, these are each added in a concentration of 1000 ppm to the formulation solution.
Bell pepper plants (Capsicum annuum) severely infested with the green peach aphid (Myzus persicae) are treated by spraying with the active compound formulation in the desired concentration.
After the desired time, the kill in % is determined. 100% means that all the animals have been killed; 0% means that no animals have been killed.

Another test has as its system Ctenocephalides felis. Put plainly: Ctenocephalides felis in vitro contact test with adult cat fleas. The following applies: application rate 5 μg/cm^2 (=500 g/ha); after 48 h; fleas dead or moribund. As to the method: Ctenocephalides felis—In Vitro Contact Tests with Adult Cat Fleas
For the coating of the test tubes, 9 mg of active compound are first dissolved in 1 ml of acetone p.a. and then diluted to the desired concentration with acetone p.a. 250 μl of the solution are distributed homogeneously on the inner walls and the base of a 25 ml glass tube by turning and rocking on an orbital shaker (rocking rotation at 30 rpm for 2 h). With 900 ppm of active compound solution and internal surface area 44.7 cm^2, given homogeneous distribution, an area-based dose of 5 μg/cm^2 is achieved.
After the solvent has evaporated off, the tubes are populated with 5-10 adult cat fleas (Ctenocephalides felis), sealed with a perforated plastic lid and incubated in a horizontal position at room temperature and ambient humidity. After 48 h, efficacy is determined. To this end, the tubes are stood upright and the fleas are knocked to the base of the tube. Fleas which remain motionless at the base or move in an uncoordinated manner are considered to be dead or moribund.
100% efficacy means that all the fleas were dead or moribund. 0% efficacy means that no fleas were harmed.

In test [5] the test system is Spodoptera frugiperda. Put plainly: Spodoptera frugiperda spray test. As to conditions: foliar, 168 h, application rate 100 g/ha, maize leaf discs, after 7 days, read-out: efficacy. The protocol:
Spodoptera frugiperda—Spray Test
as §1, §2
To produce further test concentrations, the formulation is diluted with emulsifier-containing water.
After 7 days, the efficacy in % is determined. 100% means that all the caterpillars have been killed; 0% means that no caterpillar has been killed.

Test [6] deals with Spodoptera frugiperda. Put plainly: Spodoptera frugiperda spray test (SPODFR), comparative. As to conditions: 168 h, 0.8 g of ai/ha, 7 dat, read-out: % Efficacy. As to the method: Spodoptera frugiperda—Spray Test (SPODFR)
as §1, §2, §3
Leaf discs of maize (Zea mays) are sprayed with an active compound formulation of the desired concentration and, after drying, populated with caterpillars of the armyworm (Spodoptera frugiperda).
After the desired period of time, the efficacy in % is determined. 100% means that all the caterpillars have been killed; 0% means that no caterpillar has been killed.

SMILES strings stand for the structures.

With `CCS(=O)(=O)c1c(-c2nc3cc(C(F)(F)F)cnc3n2C)ncc2cc(Br)ccc12` [Example I-037, 7-Bromo-4-ethylsulfonyl-3-[3-methyl-6-(trifluoromethyl)imidazo[4,5-b]pyridin-2-yl]isoquinoline], the Emax at 4 g/ha in the test on Myzus persicae [1] (4 g of ai/ha) was determined as 70%. Moreover, the Emax at 20 g/ha in the test with Myzus persicae [1] (20 g of ai/ha) stood at 90%. In addition, the Emax at 4 ppm with Myzus persicae [2] was 90%; in the test on Myzus persicae [4] (4 ppm), 100%. The pest or weed control at 4 ppm with Myzus persicae [3] was determined as 100%. Besides, the Emax at 0.8 ppm with Myzus persicae [4] (0.8 ppm) stood at 100%. Also, the efficacy in the test with Ctenocephalides felis amounted to 100%. The pest or weed control at 100 g/ha in the test with Spodoptera frugiperda [5] was 100%. The Emax at 0.8 g/ha in the test on Spodoptera frugiperda [6] was 100%.
